Reference: article PMC8165439, “Chymase Dependent Pathway of Angiotensin II Generation and Rapeseed Derived Peptides for Antihypertensive Treatment of Spontaneously Hypertensive Rats” (Frontiers in Pharmacology, 2021)

What was measured:
ACE = conditions: ref Petrie et al., 2001; cited from earlier work
[1] = test system: spontaneously hypertensive rats (SHR); assay: Chronic iv treatment, urinary albumin excretion (UAE); assay type: in vivo, rat; conditions: mean ± SEM, n = 5
Description: Systolic and diastolic blood pressure (SBP and DBP, respectively) and heart rate (HR) were measured in conscious unrestrained rats by telemetry technique, once a week for 24 h. 24 hour observations in metabolic cages (Tecniplast S. p.A. Buguggiate, Italy) were performed weekly. The diuresis, weight of feces, food and water intake were measured; urine and blood samples were collected on day 0, 7th and 14th, and were centrifuged at 1200 g (blood for 15 min and urine for 5 min), then the samples were stored at –80°C until analysis.
On day 0 all animals received saline (0.9% NaCl) and then, for 14 consecutive days, the substance tested. Chymostatin (CH, 2 mg/kg/day) was dissolved in DMSO and then diluted with PBS (final concentration of DMSO was 0.15%). Peptides RIY (7.5 mg/kg/day) and VWIS (12.5 mg/kg/day) were dissolved in saline (0.9% NaCl, S). The substances were administered through the femoral vein during 10 min in the volume of 0.5 ml to young SHR (infusion rate: 3 ml/h) and 1 ml to adult rats (infusion rate: 6 ml/h). Control rats received solvents (either DMSO or saline) in the same volume.
Urine volume was determined by gravimetric method. Sodium and potassium concentration in urine and plasma were measured by flame photometry (PFP7/C, Jenway Ltd, Stone, United Kingdom). Urine and plasma osmolality were measured by freezing point depression (Osmomat® 030 M, Gonotec, Berlin, Germany). These parameters were used to determine the excretion rates of total solutes (UosmV), sodium (UNaV) and potassium (UKV). Commercially available ELISA kits were used to measure nitric oxide metabolites (NOx, SunRed, Shanghai) and albumin (Albumin, ICL, Portland) concentration in urine. Excretion rate of NOx (UNOxV) and albumin (UAE) were calculated.

[2] = test system: spontaneously hypertensive rats (SHR); assay: Glomerulosclerosis index (GSI) after chronic treatment; assay type: in vivo, rat; conditions: after 14 days daily iv CH 2, RIY 7.5, VWIS 12.5 mg/kg/day, mean ± SEM, n = 5
Description: After the chronic experiment rats were anesthetized with sodium thiopental (100 mg/kg, ip, Sandoz GmbH, Kundl, Austria) and the heart, kidney and tibia were harvested for morphologic analysis. Additionally, left ventricular hypertrophy was assessed: the hearts were immediately harvested, dried with filter paper, and weighed. Then the left ventricle (LV) was carefully excised and weighed again. Left ventricular hypertrophy was assessed based on the ratio of LV mass to tibia length (LV/tibia).
The kidneys were fixed in 4% buffered formalin, embedded in paraffin and stained with hematoxylin/eosin for morphology evaluation. Glomerulosclerosis/hyalinosis index (GSI) was defined as segmental solidification of the glomerular capillary tuft, segmental collapse, obliteration of capillary lumen and accumulation of hyaline. Fifty glomeruli per section were randomly selected and evaluated using semi-quantitative scoring method as described in detail previously ([Maric et al., 2004]; [Gawrys et al., 2018]). Blind group allocation of the investigators was used.

[3] = test system: anesthetized spontaneously hypertensive rats (SHR); assay: Acute infusion of chymostatin to anesthetized rats, mean arterial blood pressure; assay type: in vivo, rat; conditions: anesthetized adult SHR, chymostatin 2 mg/kg iv infusion 1 h, n = 7; decrease observed 30 min after cessation of infusion
Description: In acute experiments rats were anesthetized with intraperitoneal (ip) sodium thiopental (100 mg/kg; Sandoz GmbH, Kundl, Austria), which provided stable anesthesia for about 4 h. All surgical preparations were already described in detail ([Gawrys et al., 2014]; [Badzynska et al., 2020]). Throughout the experiment the temperature of the animal was kept constant (37°C). A cannula was placed in the trachea to ensure a free airway. The jugular vein was cannulated for infusion of fluids and drugs; during surgical preparations 3% bovine albumin in Ringer solution was infused at 10 ml/kg/h. For mean arterial blood pressure (MBP) measurement, a Teflon catheter was placed in the femoral artery (Stoelting Blood Pressure Meter, Wood Dale, IL, United States). After surgical preparations and stabilization of all parameters, a short control period (30 min) was made to obtain baseline for measured parameters. Chymostatin or its solvent (final concentration of DMSO was 0.05%) were administered for 1 h. After cessation of chymostatin infusion, a recovery period (30 min) was made. In the end, the animals were sacrificed by sodium thiopental overdose (iv); and vital life signs (blood pressure, breathing) were monitored until death.

Structure (SMILES): CC(C)C[C@H](NC(=O)[C@@H](NC(=O)N[C@@H](Cc1ccccc1)C(=O)O)[C@@H]1CCN=C(N)N1)C(=O)N[C@H](C=O)Cc1ccccc1 [CH, chymostatin]
- block of ACE by chymostatin (ACE): does not block ACE
- Urinary albumin excretion (UAE) ([1]; adult SHR, day 0 (baseline, saline)): 0.59 ± 0.33 mg/24h
- Urinary albumin excretion (UAE) ([1]; adult SHR, day 7 of daily iv CH 2, RIY 7.5, VWIS 12.5 mg/kg/day): 0.41 ± 0.04 mg/24h
- Urinary albumin excretion (UAE) ([1]; adult SHR, day 14 of daily iv CH 2, RIY 7.5, VWIS 12.5 mg/kg/day): 0.84 ± 0.32 mg/24h
- Urinary albumin excretion (UAE) ([1]; young SHR, day 0 (baseline, saline)): 0.03 ± 0.01 mg/24h
- Urinary albumin excretion (UAE) ([1]; young SHR, day 7 of daily iv CH 2, RIY 7.5, VWIS 12.5 mg/kg/day): 0.07 ± 0.01 mg/24h
- Urinary albumin excretion (UAE) ([1]; young SHR, day 14 of daily iv CH 2, RIY 7.5, VWIS 12.5 mg/kg/day): 0.13 ± 0.03 mg/24h
- glomerulosclerosis index (GSI) ([2]; adult SHR): 0.50 ± 0.07
- glomerulosclerosis index (GSI) ([2]; young SHR): 0.51 ± 0.07
- Mean blood pressure (MBP) after single intravenous infusion [3]: decreased significantly
